Some test systems named below: IGROV1 ovarian; DU-145 prostate; BT-549 breast; KM12 colon; TK-10 renal; 786-0 renal; MOLT-4 leukemia; HOP-92 NSCLC; HT29 colon; SF-295 CNS.
What all share (experiment): growth of human tumour cells (NCI), 48 h

SMILES strings stand for the structures. Several values for one entry are separate records, joined by “and”; a condition that tells them apart may be missing. Equal values may be shown once.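 Tested at 5 concentrations; 48 h exposure; 96-well plates; endpoints linearly interpolated, else capped at highest concentration. Here, GI50 denotes the concentration required for 50% inhibition of growth. Definition used: TGI = concentration required for complete inhibition of growth.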

Turning to `CN1CCN(Cc2ccc(NC(=O)c3cncc(C#Cc4c(N)ncc5ccc(C#N)cc45)c3)cc2C(F)(F)F)CC1`, the GI50 is 0.816 µM in the assay with IGROV1 ovarian; 0.829 µM in the assay with DU-145 prostate; 6.46 µM with BT-549 breast; 0.005 µM in the assay on KM12 colon; 0.969 µM in the assay on TK-10 renal; 0.901 µM in the assay on 786-0 renal. The GI50 in the assay with MOLT-4 leukemia is 0.801 µM; in the assay with HOP-92 NSCLC it was 0.412 µM; in the assay on HT29 colon, 0.079 µM; in the assay with SF-295 CNS it was 8.67 µM. The TGI in the assay on IGROV1 ovarian was found to be 1.99 µM; in the assay on DU-145 prostate, 1.59 µM; in the assay with BT-549 breast, 14.8 µM; in the assay on KM12 colon, 0.791 µM; with TK-10 renal, 1.87 µM; with 786-0 renal, 1.71 µM. The TGI in the assay with MOLT-4 leukemia was found to be 2.96 µM; with HOP-92 NSCLC it was 6.35 µM; in the assay on HT29 colon, 1.17 µM; with SF-295 CNS it was 18 µM.

As to `O=C(O)CCCCn1ccc(=O)[nH]c1=O`, the TGI in the assay with IGROV1 ovarian, in the assay with DU-145 prostate, in the assay on BT-549 breast, in the assay on KM12 colon, with TK-10 renal and in the assay on 786-0 renal was more than 100 µM in each case. The TGI in the assay with MOLT-4 leukemia, in the assay with HT29 colon and in the assay on SF-295 CNS was more than 100 µM each time.

`Cc1ccc([P+](Cc2ccccc2)(c2ccccc2)c2ccccc2)cc1`: the GI50 in the assay on IGROV1 ovarian was 1.92 µM; with DU-145 prostate it was 3.62 µM; in the assay with BT-549 breast, 3.31 µM; with KM12 colon, 1.69 µM; in the assay on 786-0 renal, 4.11 µM; in the assay with MOLT-4 leukemia, 3.32 µM. Besides, the figures for the GI50 in the assay on HT29 colon and in the assay with SF-295 CNS were 1.6 µM and 2.36 µM, respectively. For the same compound, the TGI in the assay with IGROV1 ovarian is 19 µM; with DU-145 prostate, more than 100 µM; with BT-549 breast, 14.8 µM; with KM12 colon, 12 µM; in the assay with 786-0 renal, more than 100 µM; in the assay with MOLT-4 leukemia, 14 µM. For the same compound, the results for the TGI in the assay with HT29 colon and with SF-295 CNS were 10.5 µM and 7.69 µM, respectively.

As to `COC(=O)Oc1nn(C(=O)OC)c(=O)c2ccccc12`, the TGI in the assay on IGROV1 ovarian, with DU-145 prostate, in the assay with BT-549 breast, in the assay with KM12 colon, with TK-10 renal and in the assay with 786-0 renal was more than 100 µM in each case. The TGI in the assay on MOLT-4 leukemia and with SF-295 CNS was more than 100 µM throughout.

Regarding `O=C1/C(=C/c2ccc([N+](=O)[O-])s2)Oc2cc(Cl)ccc21`, the GI50 in the assay with IGROV1 ovarian is 0.941 µM; in the assay on DU-145 prostate, 3.81 µM; with BT-549 breast, 0.698 µM; in the assay with KM12 colon, 0.758 µM; in the assay on TK-10 renal, 8.27 µM; with 786-0 renal, 2.9 µM. Further, the GI50 with HOP-92 NSCLC was 0.631 µM; in the assay with SF-295 CNS, 4.46 µM. Moreover, the TGI in the assay on IGROV1 ovarian was 3.61 µM; with DU-145 prostate, more than 100 µM; in the assay with BT-549 breast, 2.09 µM; with KM12 colon, 4.56 µM; in the assay on TK-10 renal, more than 21.1 µM; in the assay with 786-0 renal, 7.35 µM. For the same compound, the TGI is 2.53 µM in the assay on HOP-92 NSCLC and more than 100 µM with SF-295 CNS.

In the case of `COC1=CC(c2ccc[nH]2)=N/C1=C\c1[nH]c(C)c(C(=O)CCC(=O)Oc2ccc3c(c2)CCC2C3CC[C@]3(C)[C@@H](O)CC[C@@H]23)c1C` (stereo not given in full), the GI50 is 4.47 µM with IGROV1 ovarian; 3.54 µM with DU-145 prostate; 3.51 µM with BT-549 breast; 3 µM in the assay with KM12 colon; 7.68 µM in the assay on TK-10 renal; 2.04 µM with 786-0 renal. The figures for the GI50 in the assay with HOP-92 NSCLC and with SF-295 CNS were 1.45 µM and 4 µM, respectively. Also, the TGI is more than 100 µM in the assay on IGROV1 ovarian; more than 100 µM in the assay on DU-145 prostate; 61.5 µM in the assay on BT-549 breast; more than 100 µM with KM12 colon; more than 100 µM with TK-10 renal; 4.35 µM in the assay on 786-0 renal. Further, the figures for the TGI in the assay on HOP-92 NSCLC and with SF-295 CNS were 4.39 µM and 20.4 µM, respectively.

Regarding `COc1cc2c(c(O)c1Cl)C(=O)c1c(O)cc(C[C@H](C)O)cc1[C@H]2[C@H]1c2cc(C[C@H](C)O)cc(O)c2C(=O)c2c1cc(OC)c(Cl)c2O`, the TGI in the assay with IGROV1 ovarian was 39 µM and > 100 µM; in the assay on DU-145 prostate, 75 µM and > 100 µM; in the assay on BT-549 breast, 59 µM and 55.1 µM; with KM12 colon it was 75 µM and > 100 µM; with TK-10 renal, 33 µM and > 100 µM; in the assay with 786-0 renal it was 75 µM and > 100 µM. In addition, the TGI in the assay with MOLT-4 leukemia is 75 µM and > 100 µM; in the assay on HT29 colon it was 75 µM and > 100 µM; with SF-295 CNS, 5.91 µM and 53.6 µM. The GI50 in the assay with BT-549 breast is 2.51 µM and 14 µM; in the assay with 786-0 renal, 3.21 µM and 30.3 µM.

Regarding `COc1cc(OC)cc(Oc2cnc3cc(N)cc(N)c3n2)c1`, the GI50 in the assay on DU-145 prostate is 17.6 µM; in the assay on BT-549 breast, 17.2 µM; in the assay with KM12 colon it was 10.3 µM; in the assay with TK-10 renal, 16.6 µM; in the assay with 786-0 renal, 15.2 µM; with MOLT-4 leukemia, 5.37 µM. Also, the results for the GI50 with HT29 colon and in the assay with SF-295 CNS were 13.3 µM and 11.6 µM, respectively. Besides, the TGI in the assay on DU-145 prostate was determined as 38.5 µM; with BT-549 breast it was 39.2 µM; in the assay with KM12 colon it was 24.1 µM; in the assay on TK-10 renal, 38.5 µM; in the assay on 786-0 renal it was 29 µM; in the assay with MOLT-4 leukemia it was 20.7 µM. Moreover, the TGI with HT29 colon was found to be 30.6 µM; in the assay on SF-295 CNS, 32.7 µM.

As to `COc1ccc(/C=C/C(=O)c2c(O)ccc3c(C)c(C(=O)O)oc23)cc1`, the GI50 with IGROV1 ovarian is more than 100 µM; with DU-145 prostate, more than 100 µM; in the assay on BT-549 breast, 73.7 µM; in the assay on KM12 colon it was more than 100 µM; in the assay with TK-10 renal, more than 100 µM; in the assay with 786-0 renal, 90.3 µM. The GI50 in the assay on MOLT-4 leukemia is 31 µM; in the assay with HT29 colon, more than 100 µM; with SF-295 CNS, 35.1 µM. The TGI in the assay with IGROV1 ovarian, with DU-145 prostate, in the assay with BT-549 breast, in the assay on KM12 colon, with TK-10 renal and in the assay on 786-0 renal was more than 100 µM each time. The TGI in the assay on MOLT-4 leukemia, in the assay on HT29 colon and in the assay with SF-295 CNS was more than 100 µM each time.

These data come from PubChem BioAssay (NCI).
